US7605154B2, “Substituted Thiazolo [4,5-d]pyrimidines as protein kinase inhibitors” (Janssen Pharmaceutica N.V., priority 2005, dated 2009)

target: T1, EGFR (Homo sapiens, UniProt P00533); test: EGFR Kinase Assay; assay type: biochemical; conditions: GST-EGFR, 5 μM ATP
T1 construct: started at nucleotide 2189 (corresponding to amino acid 667) and ended at the termination codon; made in house; host or cells: Sf9 insect cells (baculovirus)
Description: The portion was PCR amplified with primers that added the lambda attB sequences to each end, recombined into an entry vector, then into a, GST destination vector (as described in Gateway Technologies Manual by Invitrogen Corporation, Carlsbad, Calif.).
The destination vector was recombined in the DH10BAC strain of bacteria to produce a bacmid. The bacmid was transfected into Sf 9 cells and the supernatant containing the baculovirus was collected. The GSTEGFR protein was purified using large cultures of Sf 9 cells infected with stock virus. After an appropriate period of time, the cells were collected and lysed. The GSTEGFR was then purified from the lysate on Glutathione-Sepharose columns (as described by Amersham Biosciences, Buckinghamshire, United Kingdom).
The free biotin was separated from the biotinylated polyGluTyr on a gel filtration column.
A mixture of a 10× kinase buffer (500 mM Tris at pH 8.0, 100 mM Magnesium Chloride and 1 mM Sodium Vanadate), DTT (1 mM final from 500 mM stock), ATP (5 μM final from 10 mM stock), biotinylated polyGluTyr (10 μg/μL stock), γ-^33P ATP (10 μCi/μL stock) and water was added to each well (90 μL/well) of a Streptavidin Flashplate (Perkin Elmer, Wellesley, Mass.).
Test compound in 100% DMSO (2 μL) was added to the appropriate wells. Diluted GSTEGFR (1:300 dilution in 50 mM Tris at pH 8.0 and 0.1% bovine serum albumin) (10 μL) was added to the wells to initiate the reactions.
The plates were incubated at 30° C. for 1 hr with shaking. The reacted contents were removed and the plates were sequentially washed three times with a 1×PBS stop buffer (300 μL without Magnesium and Calcium) and 100 mM EDTA. After the final wash, the same stop buffer (200 μL) was added to the wells. The plates were then sealed and read on the TopCount scintillation counter.
Test compounds were assayed in triplicate at 16 concentrations at half-log dilutions starting at 200 uM. A maximum and minimum signal for the assay was determined on each plate. The percent inhibition of a test compound was calculated according to the formula
For a series of test concentrations, the IC50 was derived by graphing percent inhibition against the log of the concentrations tested for a given compound.

T1 sequence (P00533 667-1210 limits assumed): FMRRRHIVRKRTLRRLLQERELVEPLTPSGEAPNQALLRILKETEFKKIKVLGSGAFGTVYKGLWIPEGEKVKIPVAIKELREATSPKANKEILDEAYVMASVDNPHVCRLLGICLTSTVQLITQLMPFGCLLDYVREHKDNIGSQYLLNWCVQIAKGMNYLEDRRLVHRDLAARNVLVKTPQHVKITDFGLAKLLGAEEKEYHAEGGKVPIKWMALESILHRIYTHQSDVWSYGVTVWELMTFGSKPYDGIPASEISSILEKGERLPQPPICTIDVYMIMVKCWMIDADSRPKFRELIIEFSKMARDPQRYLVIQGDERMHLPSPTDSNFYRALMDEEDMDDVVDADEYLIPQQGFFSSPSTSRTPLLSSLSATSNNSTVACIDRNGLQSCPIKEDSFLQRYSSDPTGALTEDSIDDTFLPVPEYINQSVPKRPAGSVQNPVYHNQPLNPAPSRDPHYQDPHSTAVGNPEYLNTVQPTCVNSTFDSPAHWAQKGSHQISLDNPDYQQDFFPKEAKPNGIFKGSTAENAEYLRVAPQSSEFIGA

`Fc1ccc(Nc2ncnc3nc(Nc4ccc(N5CCOCC5)cc4)sc23)cc1Cl` [Cpd 1, N^7-(3-chloro-4-fluoro-phenyl)-N^2-(4-morpholin-4-yl-phenyl)-thiazolo[4,5-d]pyrimidine-2,7-diamine] and `Fc1ccc(Nc2ncnc3nc(Nc4ccc(OCCN5CCOCC5)cc4)sc23)cc1Cl` [Cpd 14, N^7-(3-chloro-4-fluoro-phenyl)-N^2-[4-(2-morpholin-4-yl-ethoxy)-phenyl]-thiazolo[4,5-d]pyrimidine-2,7-diamine] are within 1.5-fold of each other in IC50: 44 nM for the first, 59.4 nM for the second.

Compared with `Fc1ccc(Nc2ncnc3nc(Nc4cccc(CN5CCOCC5)c4)sc23)cc1Cl` [Cpd 3, N^7-(3-chloro-4-fluoro-phenyl)-N^2-(3-morpholin-4-ylmethyl-phenyl)-thiazolo[4,5-d]pyrimidine-2,7-diamine], `Fc1ccc(Nc2ncnc3nc(Nc4ccc(CN5CCSCC5)cc4)sc23)cc1Cl` [Cpd 20, N7-(3-chloro-4-fluoro-phenyl)-N^2-(4-thiomorpholin4-ylmethyl-phenyl)-thiazolo[4,5-d]pyrimidine-2,7-diamine] is 2.4-fold lower in IC50: 119 nM for the first, 49.3 nM for the second. The second is the more potent here.

First: CN1CCN(Cc2ccc(Nc3nc4ncnc(Nc5ccc(F)c(Cl)c5)c4s3)cc2)CC1 [Cpd 5, N^7-(3-chloro-4-fluoro-phenyl)-N^2-[4-(4-methyl-piperazin-1-ylmethyl)-phenyl]-thiazolo[4,5-d]pyrimidine-2,7-diamine]
Second: CCOC(=O)N1CCN(Cc2ccc(Nc3nc4ncnc(Nc5ccc(F)c(Cl)c5)c4s3)cc2)CC1 [Cpd 28, 4-{4-[7-(3-chloro-4-fluoro-phenylamino)-thiazolo[4,5-d]pyrimidin-2-ylamino]-benzyl}-piperazine-1-carboxylic acid ethyl ester]
The IC50 of the first is 3.1-fold lower: 18.4 nM for the first, 57 nM for the second.

First: COc1cc(Nc2nc3ncnc(Nc4ccc(F)c(Cl)c4)c3s2)ccc1CN1CCCCC1 [Cpd 6, N^7-(3-chloro-4-fluoro-phenyl)-N^2-(3-methoxy4-piperidin-1-ylmethyl-phenyl)-thiazolo[4,5-d]pyrimidine-2,7-diamine]
Second: Fc1ccc(Nc2ncnc3nc(Nc4ccc(CN5CCCCCC5)cc4)sc23)cc1Cl [Cpd 19, N^2-(4-azepan-1-ylmethyl-phenyl)-N^7-(3-chloro-4-fluoro-phenyl)-thiazolo[4,5-d]pyrimidine-2,7-diamine]
The IC50 of the first is 3.3-fold higher: 20 nM for the first, 6 nM for the second. The second is the more potent here.

Going from `CCc1nccn1Cc1ccc(Nc2nc3ncnc(Nc4cccc(Cl)c4)c3s2)cc1` [Cpd 7, N^7-(3-chloro-phenyl)-N^2-[4-(2-ethyl-imidazol-1-ylmethyl)-phenyl]-thiazolo[4,5-d]pyrimidine-2,7-diamine] to `CCc1nccn1Cc1ccc(Nc2nc3ncnc(Nc4ccc(F)c(Cl)c4)c3s2)cc1` [Cpd 30, N^7-(3-chloro-4-fluoro-phenyl)-N^2-[4-(2-ethyl-imidazol-1-ylmethyl)-phenyl]-thiazolo[4,5-d]pyrimidine-2,7-diamine], the IC50 falls from 13 nM to 5.5 nM (2.4-fold). The second is the more potent here.

Going from `Clc1cccc(Nc2ncnc3nc(Nc4cccc(CN5CCCCC5)c4)sc23)c1` [Cpd 8, N^7-(3-chloro-phenyl)-N^2-(3-piperidin-1-ylmethyl-phenyl)-thiazolo[4,5-d]pyrimidine-2,7-diamine] to `Fc1ccc(Nc2ncnc3nc(Nc4ccc(OCCN5CCCC5)cc4)sc23)cc1Cl` [Cpd 15, N^7-(3-chloro-4-fluoro-phenyl)-N^2-[4-(2-pyrrolidin-1-yl-ethoxy)-phenyl]-thiazolo[4,5-d]pyrimidine-2,7-diamine], the IC50 rises from 34.7 nM to 90.1 nM (2.6-fold). The first is the more potent here.

Compared with `Clc1cccc(Nc2ncnc3nc(Nc4ccc(Cc5ccncc5)cc4)sc23)c1` [Cpd 9, N^7-(3-chloro-phenyl)-N^2-(4-pyridin-4-ylmethyl-phenyl)-thiazolo[4,5-d]pyrimidine-2,7-diamine], `Fc1ccc(Nc2ncnc3nc(Nc4ccc(Cn5ccnc5)cc4)sc23)cc1Cl` [Cpd 23, N^7-(3-chloro-4-fluoro-phenyl)-N^2-(4-imidazol-1-ylmethyl-phenyl)-thiazolo[4,5-d]pyrimidine-2,7-diamine] is 2.9-fold lower in IC50: 18 nM for the first, 6.3 nM for the second.

`CN(C)Cc1ccc(Nc2nc3ncnc(Nc4ccc(F)c(Cl)c4)c3s2)cc1` [Cpd 10, N^7-(3-chloro-4-fluoro-phenyl)-N^2-(4-dimethylaminomethyl-phenyl)-thiazolo[4,5-d]pyrimidine-2,7-diamine] and `CN(C)C(=O)c1ccc(Nc2nc3ncnc(Nc4ccc(F)c(Cl)c4)c3s2)cc1` [Cpd 27, 4-[7-(3-chloro-4-fluoro-phenylamino)-thiazolo[4,5-d]pyrimidin-2-ylamino]-N,N-dimethyl-benzamide] are within 1.5-fold of each other in IC50: 12.3 nM for the first, 15 nM for the second.

`COc1ccc(Nc2nc3ncnc(Nc4ccc(F)c(Cl)c4)c3s2)cc1` [Cpd 12, N^7-(3-chloro4-fluoro-phenyl)-N^2-(4-methoxy-phenyl)-thiazolo[4,5-d]pyrimidine-2,7-diamine] and `Oc1ccc(Nc2nc3ncnc(Nc4ccc(F)c(Cl)c4)c3s2)cc1` [Cpd 13, 4-[7-(3-chloro4-fluoro-phenylamino)-thiazolo[4,5-d]pyrimidin-2-ylamino]-phenol] are within 1.5-fold of each other in IC50: 117 nM for the first, 95 nM for the second.

Compared with `Fc1ccc(Nc2ncnc3nc(Nc4ccc(OCCCN5CCN(c6ccc(Cl)cc6)CC5)cc4)sc23)cc1Cl` [Cpd 16, N^7-(3-chloro-4-fluoro-phenyl)-N^2-(4-{3-[4-(4-chloro-phenyl)-piperazin-1-yl]-propoxy}-phenyl)-thiazolo[4,5-d]pyrimidine-2,7-diamine], `NCC1CCN(Cc2ccc(Nc3nc4ncnc(Nc5ccc(F)c(Cl)c5)c4s3)cc2)CC1` [Cpd 22, N^2-[4-(4-aminomethyl-piperidin-1-ylmethyl)-phenyl]-N^7-(3-chloro-4-fluoro-phenyl)-thiazolo[4,5-d]pyrimidine-2,7-diamine] is 18-fold lower in IC50: 165 nM for the first, 9.3 nM for the second.

`CN(Cc1ccc(Nc2nc3ncnc(Nc4ccc(F)c(Cl)c4)c3s2)cc1)C1CCCCC1` [Cpd 21, N^7-(3-chloro-4-fluoro-phenyl)-N^2-{4-[(cyclohexyl-methyl-amino)-methyl]-phenyl}-thiazolo[4,5-d]pyrimidine-2,7-diamine] and `COC[C@@H]1CCCN1Cc1ccc(Nc2nc3ncnc(Nc4ccc(F)c(Cl)c4)c3s2)cc1` [Cpd 26, N^7-(3-chloro-4-fluoro-phenyl)-N^2-[4-(2S)-(2-methoxymethyl-pyrrolidin-1-ylmethyl)-phenyl]-thiazolo[4,5-d]pyrimidine-2,7-diarmine] are within 1.5-fold of each other in IC50: 13.3 nM for the first, 11.8 nM for the second.

`CC1CC(C)CN(Cc2ccc(Nc3nc4ncnc(Nc5ccc(F)c(Cl)c5)c4s3)cc2)C1` (centres unmarked) [Cpd 24, N^7-(3-chloro-4-fluoro-phenyl)-N^2-[4-(3,5-dimethyl-piperidin-1-ylmethyl)-phenyl]-thiazolo[4,5-d]pyrimidine-2,7-diamine] and `CCOC(=O)C1CCN(Cc2ccc(Nc3nc4ncnc(Nc5ccc(F)c(Cl)c5)c4s3)cc2)CC1` [Cpd 29, 1-{4-[7-(3-chloro-4-fluoro-phenylamino)-thiazolo[4,5-d]pyrimidin-2-ylamino]-benzyl}-piperidine-4-carboxylic acid ethyl ester] are within 1.5-fold of each other in IC50: 21.6 nM for the first, 27.8 nM for the second.

First: c1ccc(Cn2ncc3ccc(Nc4ncnc5nc(Nc6ccc(CN7CCOCC7)cc6)sc45)cc32)cc1 [Cpd 36, N^7-(1-benzyl-1H-indazol-6-yl)-N^2-(4-morpholin-4-ylmethyl-phenyl)-thiazolo[4,5-d]pyrimidine-2,7-diamine]
Second: C#Cc1cccc(Nc2ncnc3nc(Nc4ccc(S(=O)(=O)NCCCN(C)C)cc4)sc23)c1 [Cpd 37, N-(3-dimethylamino-propyl)-4-[7-(3-ethynyl-phenylamino)-thiazolo[4,5-d]pyrimidin-2-ylamino]-benzenesulfonamide]
The IC50 of the first is 40-fold higher: 1020 nM for the first, 25.3 nM for the second. The second is the more potent here.
